Experimental data published in PubChem BioAssay (NCI).
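A five-concentration, 48-hour dose response in 96-well plates underlies each endpoint, interpolated linearly between surrounding concentrations. At the TGI there is no net growth.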

Experiments:
Experiment in all cases: inhibition of tumour cell growth, NCI panel, 48 h
786-0 renal = system: 786-0 renal
A498 renal = system: A498 renal
A549 NSCLC = system: A549 NSCLC
ACHN renal = system: ACHN renal
BT-549 breast = system: BT-549 breast
CAKI-1 renal = system: CAKI-1 renal
CCRF-CEM leukemia = system: CCRF-CEM leukemia
COLO 205 colon = system: COLO 205 colon
DU-145 prostate = system: DU-145 prostate
EKVX NSCLC = system: EKVX NSCLC
HCC-2998 colon = system: HCC-2998 colon
HCT-116 colon = system: HCT-116 colon
HCT-15 colon = system: HCT-15 colon
HL-60(TB) leukemia = system: HL-60(TB) leukemia
HOP-62 NSCLC = system: HOP-62 NSCLC
HS 578T breast = system: HS 578T breast
HT29 colon = system: HT29 colon
IGROV1 ovarian = system: IGROV1 ovarian
K-562 leukemia = system: K-562 leukemia
KM12 colon = system: KM12 colon
LOX IMVI melanoma = system: LOX IMVI melanoma
M14 melanoma = system: M14 melanoma
MALME-3M melanoma = system: MALME-3M melanoma
MCF7 breast = system: MCF7 breast
MDA-MB-231 breast = system: MDA-MB-231 breast
MDA-MB-435 = system: MDA-MB-435
MDA-N = system: MDA-N
MOLT-4 leukemia = system: MOLT-4 leukemia
NCI-H226 lung = system: NCI-H226 lung
NCI-H23 lung = system: NCI-H23 lung
NCI-H460 lung = system: NCI-H460 lung
NCI-H522 lung = system: NCI-H522 lung
OVCAR-3 ovarian = system: OVCAR-3 ovarian
OVCAR-4 ovarian = system: OVCAR-4 ovarian
OVCAR-5 ovarian = system: OVCAR-5 ovarian
OVCAR-8 ovarian = system: OVCAR-8 ovarian
PC-3 prostate = system: PC-3 prostate
RPMI-8226 leukemia = system: RPMI-8226 leukemia
RXF 393 renal = system: RXF 393 renal
SF-268 CNS = system: SF-268 CNS
SF-295 CNS = system: SF-295 CNS
SF-539 CNS = system: SF-539 CNS
SK-MEL-2 melanoma = system: SK-MEL-2 melanoma
SK-MEL-28 melanoma = system: SK-MEL-28 melanoma
SK-MEL-5 melanoma = system: SK-MEL-5 melanoma
SK-OV-3 ovarian = system: SK-OV-3 ovarian
SN12C renal = system: SN12C renal
SNB-19 CNS = system: SNB-19 CNS
SNB-75 CNS = system: SNB-75 CNS
SR leukemia = system: SR leukemia
SW-620 colon = system: SW-620 colon
T-47D breast = system: T-47D breast
TK-10 renal = system: TK-10 renal
U251 CNS = system: U251 CNS
UACC-257 melanoma = system: UACC-257 melanoma
UACC-62 melanoma = system: UACC-62 melanoma
UO-31 renal = system: UO-31 renal
NCI/ADR-RES ovarian = system: NCI/ADR-RES ovarian

Measured: TGI

CN(C)CCNC(=O)c1cc([N+](=O)[O-])cn1C
not listed: NCI/ADR-RES ovarian
> 100 µM: all other assays above

Cn1c(=O)c2c(ncn2Cc2ccc(O)c([N+](=O)[O-])c2)n(C)c1=O
not listed: HCC-2998 colon | MALME-3M melanoma | RXF 393 renal
> 100 µM: all other assays above
